Assay results: patent US6355799B1, “Substituted benzene compounds, process for their preparation, and herbicidal and defoliant compositions containing them” (ISK Americas Incorporated, priority 1997, dated 2002)

Columns and labels:
Type in all cases: in vivo
[1] = tested on: field corn (Zea mays L., var. Dekalb 535, CORN); experiment: Post-emerge test, crop safety; conditions: post-emerge, 14 days after application, rating scale 0-100
Procedure, shortened: (§1)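 Visual ratings on a 0-100 scale (0 no damage, 100 all plants dead) were taken at 14 days after treatment. Rates of 15-1000 g ai/ha in acetone, 187 l/ha, were sprayed onto soil one day after planting (pre-emerge) or onto 2-3 leaf plants with 0.25% v/v surfactant (post-emerge).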

[2] = tested on: upland rice (Oryza sp., var. Tebonnet, RICE); experiment: Post-emerge test, crop safety; conditions: post-emerge, 14 days after application, rating scale 0-100
Procedure, shortened: as §1

[3] = tested on: redroot pigweed (Amaranthus retroflexus, AMARE); experiment: Pre-emerge test, greenhouse herbicide activity screening; conditions: pre-emerge, 14 days after application, rating scale 0-100
Procedure, shortened: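 Compounds in acetone were track-sprayed at 187 l/ha, 15–1000 g ai/ha, onto sandy loam pots. Pre-emerge seeds were sown one day before spraying, with surface watering afterwards. Post-emerge plants were at the 2–3 leaf stage and sprayed with 0.25% v/v non-ionic surfactant. Injury was rated 0–100 at 14 days.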

[4] = tested on: redroot pigweed (Amaranthus retroflexus, AMARE); experiment: Post-emerge test, greenhouse herbicide activity screening; conditions: post-emerge, 14 days after application
Procedure, shortened: (§2)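 Each test used a mechanized track sprayer delivering 187 l/ha of acetone solution at 15–1000 g ai/ha. Post-emerge foliage at 2–3 leaves was treated with added 0.25% v/v non-ionic surfactant and bottom-watered only. Injury was assessed on day 14, where 100 means total kill.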

[5] = tested on: lambsquarters (Chenopodium album, CHEAL); experiment: as above; conditions: post-emerge, 14 days after application, rating scale 0-100
Procedure, shortened: as §2

[6] = tested on: large crabgrass (Digitaria sanguinalis, DIGSA); experiment: as above; conditions: post-emerge, 14 days after application, rating scale 0-100
Procedure, shortened: as §2

[7] = tested on: ivyleaf morningglory (Ipomoea hederacea, IPOHE); experiment: as above; conditions: post-emerge, 14 days after application, rating scale 0-100
Procedure, shortened: as §2

[8] = tested on: velvetleaf (Abutilon theophrasti, ABUTH); experiment: as above; conditions: post-emerge, 14 days after application, rating scale 0-100
Procedure, shortened: as §2

[9] = tested on: barnyardgrass (Echinochloa crus-galli, ECHCG); experiment: as above; conditions: post-emerge, 14 days after application, rating scale 0-100
Procedure, shortened: as §2

[10] = tested on: johnsongrass (Sorghum halepense, SORHA); experiment: as above; conditions: post-emerge, 14 days after application, rating scale 0-100
Procedure, shortened: as §2

[11] = tested on: sicklepod (Cassia obtusifolia, CASOB); experiment: as above; conditions: post-emerge, 14 days after application, rating scale 0-100
Procedure, shortened: as §2

[12] = tested on: green foxtail (Setaria viridis, SETVI); experiment: as above; conditions: post-emerge, 14 days after application, rating scale 0-100
Procedure, shortened: as §2

[13] = tested on: field corn (Zea mays L., var. Dekalb 535, CORN); experiment: Pre-emerge test, crop safety; conditions: pre-emerge, 14 days after application, rating scale 0-100
Procedure, shortened: (§3)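 Herbicidal damage is scored 0 (none) to 100 (complete plant death) two weeks after a simulated field spray. Rates span 15–1000 g ai/ha, delivered in acetone at 187 l/ha. For post-emergence treatments, plants have 2–3 leaves and the spray carries 0.25% v/v non-ionic surfactant.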

[14] = tested on: upland rice (Oryza sp., var. Tebonnet, RICE); experiment: Pre-emerge test, crop safety; conditions: pre-emerge, 14 days after application, rating scale 0-100
Procedure, shortened: as §3

[15] = tested on: lambsquarters (Chenopodium album, CHEAL); experiment: Pre-emerge test, greenhouse herbicide activity screening; conditions: pre-emerge, 14 days after application, rating scale 0-100
Procedure, shortened: as §1

[16] = tested on: large crabgrass (Digitaria sanguinalis, DIGSA); experiment: as above; conditions: pre-emerge, 14 days after application, rating scale 0-100
Procedure, shortened: as §1

[17] = tested on: ivyleaf morningglory (Ipomoea hederacea, IPOHE); experiment: as above; conditions: pre-emerge, 14 days after application, rating scale 0-100
Procedure, shortened: as §1

[18] = tested on: velvetleaf (Abutilon theophrasti, ABUTH); experiment: as above; conditions: pre-emerge, 14 days after application, rating scale 0-100
Procedure, shortened: as §1

[19] = tested on: barnyardgrass (Echinochloa crus-galli, ECHCG); experiment: as above; conditions: pre-emerge, 14 days after application, rating scale 0-100
Procedure, shortened: as §1

[20] = tested on: johnsongrass (Sorghum halepense, SORHA); experiment: as above; conditions: pre-emerge, 14 days after application, rating scale 0-100
Procedure, shortened: as §1

[21] = tested on: sicklepod (Cassia obtusifolia, CASOB); experiment: as above; conditions: pre-emerge, 14 days after application, rating scale 0-100
Procedure, shortened: as §1

[22] = tested on: green foxtail (Setaria viridis, SETVI); experiment: as above; conditions: pre-emerge, 14 days after application, rating scale 0-100
Procedure, shortened: as §1

For `COc1c(Cl)cc(F)c(-n2c(=O)cc(C(F)(F)F)n(C)c2=O)c1NN=CCCSC` [15-14], the “Post-emerge Herbicidal Activity CORN (crop damage rating)” value ([1]; 63 g ai/ha) was 20, the “Post-emerge Herbicidal Activity CORN (crop damage rating)” value ([1]; 250 g ai/ha) was 65 and the “Post-emerge Herbicidal Activity RICE (crop damage rating)” value ([2]; 63 g ai/ha) was 40. The “Post-emerge Herbicidal Activity RICE (crop damage rating)” value ([2]; 250 g ai/ha) was 50, the “phytotoxicity rating AMARE” value ([3]; 63 g ai/ha) was 100 and the “phytotoxicity rating AMARE” value ([3]; 250 g ai/ha) was 100. For the same compound, the “Post-emerge Herbicidal Activity AMARE (phytotoxicity rating)” value ([4]; 63 g ai/ha, rating scale 0-100 (0 no damage, 100 complete death)) was 100, the “Post-emerge Herbicidal Activity AMARE (phytotoxicity rating)” value ([4]; 250 g ai/ha, rating scale 0-100) was 100 and the “Post-emerge Herbicidal Activity CHEAL (phytotoxicity rating)” value ([5]; 63 g ai/ha) was 100. The “Post-emerge Herbicidal Activity CHEAL (phytotoxicity rating)” value ([5]; 250 g ai/ha) was 100, the “Post-emerge Herbicidal Activity DIGSA (phytotoxicity rating)” value ([6]; 63 g ai/ha) was 20 and the “Post-emerge Herbicidal Activity DIGSA (phytotoxicity rating)” value ([6]; 250 g ai/ha) was 60. For the same compound, the “Post-emerge Herbicidal Activity IPOHE (phytotoxicity rating)” value ([7]; 63 g ai/ha) was 100, the “Post-emerge Herbicidal Activity IPOHE (phytotoxicity rating)” value ([7]; 250 g ai/ha) was 100 and the “Post-emerge Herbicidal Activity ABUTH (phytotoxicity rating)” value ([8]; 63 g ai/ha) was 100. The “Post-emerge Herbicidal Activity ABUTH (phytotoxicity rating)” value ([8]; 250 g ai/ha) was 100, the “Post-emerge Herbicidal Activity ECHCG (phytotoxicity rating)” value ([9]; 63 g ai/ha) was 20 and the “Post-emerge Herbicidal Activity ECHCG (phytotoxicity rating)” value ([9]; 250 g ai/ha) was 90. The “Post-emerge Herbicidal Activity SORHA (phytotoxicity rating)” value ([10]; 63 g ai/ha) was 20, the “Post-emerge Herbicidal Activity SORHA (phytotoxicity rating)” value ([10]; 250 g ai/ha) was 70 and the “Post-emerge Herbicidal Activity CASOB (phytotoxicity rating)” value ([11]; 63 g ai/ha) was 80. For the same compound, the “Post-emerge Herbicidal Activity CASOB (phytotoxicity rating)” value ([11]; 250 g ai/ha) was 100, the “Post-emerge Herbicidal Activity SETVI (phytotoxicity rating)” value ([12]; 63 g ai/ha) was 20 and the “Post-emerge Herbicidal Activity SETVI (phytotoxicity rating)” value ([12]; 250 g ai/ha) was 55. The “phytotoxicity rating CORN” value ([13]; 63 g ai/ha) was 40, the “phytotoxicity rating CORN” value ([13]; 250 g ai/ha) was 99 and the “phytotoxicity rating RICE” value ([14]; 63 g ai/ha) was 99. The “phytotoxicity rating RICE” value ([14]; 250 g ai/ha) was 100, the “phytotoxicity rating CHEAL” value ([15]; 63 g ai/ha) was 100 and the “phytotoxicity rating CHEAL” value ([15]; 250 g ai/ha) was 100. For the same compound, the “phytotoxicity rating DIGSA” value ([16]; 63 g ai/ha) was 100, the “phytotoxicity rating DIGSA” value ([16]; 250 g ai/ha) was 100 and the “phytotoxicity rating IPOHE” value ([17]; 63 g ai/ha) was 100. The “phytotoxicity rating IPOHE” value ([17]; 250 g ai/ha) was 100, the “phytotoxicity rating ABUTH” value ([18]; 63 g ai/ha) was 100 and the “phytotoxicity rating ABUTH” value ([18]; 250 g ai/ha) was 100. For the same compound, the “phytotoxicity rating ECHCG” value ([19]; 63 g ai/ha) was 100, the “phytotoxicity rating ECHCG” value ([19]; 250 g ai/ha) was 100 and the “phytotoxicity rating SORHA” value ([20]; 63 g ai/ha) was 100. For the same compound, the “phytotoxicity rating SORHA” value ([20]; 250 g ai/ha) was 100, the “phytotoxicity rating CASOB” value ([21]; 63 g ai/ha) was 90 and the “phytotoxicity rating CASOB” value ([21]; 250 g ai/ha) was 100. The “phytotoxicity rating SETVI” value ([22]; 63 g ai/ha) was 100 and the “phytotoxicity rating SETVI” value ([22]; 250 g ai/ha) was 100.
